From PubChem BioAssay AID2060510 (Molecular Pharmacology Branch, DTP, NCI, 2025)

Test system: 439559-082-T-J2-PDC spheroids viability
Assay: Anticancer human tumor 439559-082-T-J2-PDC patient-derived colon adenocarcinoma cell line growth inhibition [GQUAD]
Details: for IC50: curve of first compound; for viability, T/C: stronger effect = lower value
Outline: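 Tumor cells were grown as complex spheroids with HUVEC endothelial cells and mesenchymal stem cells as stroma. G-quadruplex stabilizers were combined with targeted agents over half-log dilutions from near the clinical Cmax, or from 10 microM.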

[1] = second compound 0.0316 µM, first compound 0.0316 µM
[2] = second compound 0.0316 µM, first compound 0.1 µM
[3] = second compound 0.0316 µM, first compound 0.316 µM
[4] = second compound 0.0316 µM, first compound 1 µM
[5] = second compound 0.0316 µM, first compound 3.16 µM
[6] = second compound 0.0316 µM, first compound 10 µM
[7] = second compound 0.1 µM, first compound 0.0316 µM
[8] = second compound 0.1 µM, first compound 0.1 µM
[9] = second compound 0.1 µM, first compound 0.316 µM
[10] = second compound 0.1 µM, first compound 1 µM
[11] = second compound 0.1 µM, first compound 3.16 µM
[12] = second compound 0.1 µM, first compound 10 µM
[13] = second compound 0.316 µM, first compound 0.0316 µM
[14] = second compound 0.316 µM, first compound 0.1 µM
[15] = second compound 0.316 µM, first compound 0.316 µM
[16] = second compound 0.316 µM, first compound 1 µM
[17] = second compound 0.316 µM, first compound 3.16 µM
[18] = second compound 0.316 µM, first compound 10 µM
[19] = second compound 1 µM, first compound 0.0316 µM
[20] = second compound 1 µM, first compound 0.1 µM
[21] = second compound 1 µM, first compound 0.316 µM
[22] = second compound 1 µM, first compound 1 µM
[23] = second compound 1 µM, first compound 3.16 µM
[24] = second compound 1 µM, first compound 10 µM
[25] = second compound 3.16 µM, first compound 0.0316 µM
[26] = second compound 3.16 µM, first compound 0.1 µM
[27] = second compound 3.16 µM, first compound 0.316 µM
[28] = second compound 3.16 µM, first compound 1 µM
[29] = second compound 3.16 µM, first compound 3.16 µM
[30] = second compound 3.16 µM, first compound 10 µM
[31] = second compound 10 µM, first compound 0.0316 µM
[32] = second compound 10 µM, first compound 0.1 µM
[33] = second compound 10 µM, first compound 0.316 µM
[34] = second compound 10 µM, first compound 1 µM
[35] = second compound 10 µM, first compound 3.16 µM
[36] = second compound 10 µM, first compound 10 µM
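Note: spheroids exposed to the agents for 7 days before readout.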
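Throughout, for viability, T/C: percent of luminescence signal in DMSO vehicle wells taken as 100% viability.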

In the case of `CC(C)(O)C1CCC(Nc2ccc3ncc(-c4cccc(C(F)(F)F)c4)n3n2)CC1` (stereo not drawn) + Cc1[nH]c2ccc(F)cc2c1-c1nc2c3cccnc3c3ncccc3c2[nH]1, the IC50 (second compound 0.0316 µM) is reported as > 10 µM, the IC50 (second compound 0.1 µM) is reported as 7.93 µM and the IC50 (second compound 0.316 µM) is reported as > 10 µM. The IC50 (second compound 1 µM) was 6.31 µM, the IC50 (second compound 3.16 µM) was 3.21 µM and the IC50 (second compound 10 µM) was 1.23 µM. The viability, T/C [1] was 99.4%, the viability, T/C [2] was 85.6% and the viability, T/C [3] was 70.6%. It also gave a viability, T/C [4] of 66%, a viability, T/C [5] of 58.8% and a viability, T/C [6] of 48.6%. The viability, T/C [7] was 102%, the viability, T/C [8] was 78% and the viability, T/C [9] was 77.9%. It also gave a viability, T/C [10] of 58.8%, a viability, T/C [11] of 66.2% and a viability, T/C [12] of 42.9%. For the same compound, the viability, T/C [13] was 86.3%, the viability, T/C [14] was 76.6% and the viability, T/C [15] was 62.4%. The viability, T/C [16] was 61.9%, the viability, T/C [17] was 53.6% and the viability, T/C [18] was 50.1%. It also gave a viability, T/C [19] of 87.1%, a viability, T/C [20] of 69.1% and a viability, T/C [21] of 76.4%. The viability, T/C [22] was 66.3%, the viability, T/C [23] was 61.4% and the viability, T/C [24] was 42.5%. It also gave a viability, T/C [25] of 77.8%, a viability, T/C [26] of 73% and a viability, T/C [27] of 62.3%. The viability, T/C [28] was 51.3%, the viability, T/C [29] was 57.7% and the viability, T/C [30] was 41.1%. For the same compound, the viability, T/C [31] was 75.8%, the viability, T/C [32] was 73% and the viability, T/C [33] was 63.4%. The viability, T/C [34] was 50.6%, the viability, T/C [35] was 44.5% and the viability, T/C [36] was 38.2%.
With `CC1COCCN1c1cc(C2(S(C)(=N)=O)CC2)nc(-c2ccnc3[nH]ccc23)n1` (stereo not drawn) + Cc1[nH]c2ccc(F)cc2c1-c1nc2c3cccnc3c3ncccc3c2[nH]1 the IC50 (second compound 0.0316 µM) was > 10 µM, the IC50 (second compound 0.1 µM) was > 10 µM and the IC50 (second compound 0.316 µM) was > 10 µM. For the same compound, the IC50 (second compound 1 µM) was > 10 µM, the IC50 (second compound 3.16 µM) was > 10 µM and the IC50 (second compound 10 µM) was > 10 µM. It also gave a viability, T/C [1] of 100%, a viability, T/C [2] of 92.5% and a viability, T/C [3] of 103%. The viability, T/C [4] was 106%, the viability, T/C [5] was 96.7% and the viability, T/C [6] was 76.8%. It also gave a viability, T/C [7] of 109%, a viability, T/C [8] of 104% and a viability, T/C [9] of 90.9%. It also gave a viability, T/C [10] of 102%, a viability, T/C [11] of 93.9% and a viability, T/C [12] of 75.8%. The viability, T/C [13] was 88.1%, the viability, T/C [14] was 105% and the viability, T/C [15] was 99.6%. The viability, T/C [16] was 104%, the viability, T/C [17] was 98.5% and the viability, T/C [18] was 71.3%. For the same compound, the viability, T/C [19] was 99.9%, the viability, T/C [20] was 86.8% and the viability, T/C [21] was 100%. It also gave a viability, T/C [22] of 90.5%, a viability, T/C [23] of 91.8% and a viability, T/C [24] of 68.5%. For the same compound, the viability, T/C [25] was 87.5%, the viability, T/C [26] was 94.2% and the viability, T/C [27] was 80.8%. For the same compound, the viability, T/C [28] was 77.4%, the viability, T/C [29] was 83.5% and the viability, T/C [30] was 63.1%. It also gave a viability, T/C [31] of 88%, a viability, T/C [32] of 87.8% and a viability, T/C [33] of 80.8%. The viability, T/C [34] was 74.4%, the viability, T/C [35] was 80.6% and the viability, T/C [36] was 64.3%.
With `COc1cc(C2c3cc4c(cc3C(OC3OC5COC(C)OC5C(O)C3O)C3COC(=O)C23)OCO4)cc(OC)c1O` (stereo not drawn) + Cc1[nH]c2ccc(F)cc2c1-c1nc2c3cccnc3c3ncccc3c2[nH]1 the IC50 (second compound 0.0316 µM) was > 10 µM, the IC50 (second compound 0.1 µM) was > 10 µM and the IC50 (second compound 0.316 µM) was > 10 µM. The IC50 (second compound 1 µM) was > 10 µM, the IC50 (second compound 3.16 µM) was > 10 µM and the IC50 (second compound 10 µM) was > 10 µM. It also gave a viability, T/C [1] of 98.1%, a viability, T/C [2] of 99.7% and a viability, T/C [3] of 97.9%. For the same compound, the viability, T/C [4] was 87.8%, the viability, T/C [5] was 86.5% and the viability, T/C [6] was 66.1%. The viability, T/C [7] was 102%, the viability, T/C [8] was 98.2% and the viability, T/C [9] was 97.5%. The viability, T/C [10] was 87.1%, the viability, T/C [11] was 96.9% and the viability, T/C [12] was 64.9%. For the same compound, the viability, T/C [13] was 108%, the viability, T/C [14] was 101% and the viability, T/C [15] was 103%. The viability, T/C [16] was 94.2%, the viability, T/C [17] was 85.6% and the viability, T/C [18] was 65.3%. It also gave a viability, T/C [19] of 98.2%, a viability, T/C [20] of 87.8% and a viability, T/C [21] of 89.4%. It also gave a viability, T/C [22] of 83.8%, a viability, T/C [23] of 86.7% and a viability, T/C [24] of 58.9%. It also gave a viability, T/C [25] of 76.5%, a viability, T/C [26] of 85.2% and a viability, T/C [27] of 84.1%. The viability, T/C [28] was 73.5%, the viability, T/C [29] was 79.9% and the viability, T/C [30] was 56.7%. It also gave a viability, T/C [31] of 88.5%, a viability, T/C [32] of 85.3% and a viability, T/C [33] of 83.8%. For the same compound, the viability, T/C [34] was 90.6%, the viability, T/C [35] was 78.5% and the viability, T/C [36] was 57.2%.
For `COc1cccc2c1C(=O)c1c(O)c3c(c(O)c1C2=O)CC(O)(C(=O)CO)CC3OC1CC(N)C(O)C(C)O1` (stereo not drawn) + CN(C)c1ccc(Nc2c3ccc(NC(=O)CCN4CCCC4)cc3nc3cc(NC(=O)CCN4CCCC4)ccc23)cc1, the IC50 (second compound 0.0316 µM) was 5.76 µM, the IC50 (second compound 0.1 µM) was 7.85 µM and the IC50 (second compound 0.316 µM) was 6.45 µM. The IC50 (second compound 1 µM) was 5.9 µM, the IC50 (second compound 3.16 µM) was 5.07 µM and the IC50 (second compound 10 µM) was 7.92 µM. For the same compound, the viability, T/C [1] was 106%, the viability, T/C [2] was 86.7% and the viability, T/C [3] was 93.4%. The viability, T/C [4] was 77.5%, the viability, T/C [5] was 62.2% and the viability, T/C [6] was 38.8%. The viability, T/C [7] was 93.8%, the viability, T/C [8] was 95.5% and the viability, T/C [9] was 89.1%. For the same compound, the viability, T/C [10] was 73.2%, the viability, T/C [11] was 59.1% and the viability, T/C [12] was 47.4%. It also gave a viability, T/C [13] of 96.8%, a viability, T/C [14] of 101% and a viability, T/C [15] of 91.9%. For the same compound, the viability, T/C [16] was 83.5%, the viability, T/C [17] was 60.6% and the viability, T/C [18] was 43.4%. It also gave a viability, T/C [19] of 91.3%, a viability, T/C [20] of 99.9% and a viability, T/C [21] of 89.8%. The viability, T/C [22] was 86.1%, the viability, T/C [23] was 59.4% and the viability, T/C [24] was 42%. The viability, T/C [25] was 94.6%, the viability, T/C [26] was 96.1% and the viability, T/C [27] was 84%. It also gave a viability, T/C [28] of 84.9%, a viability, T/C [29] of 54.8% and a viability, T/C [30] of 42.4%. The viability, T/C [31] was 88.7%, the viability, T/C [32] was 102% and the viability, T/C [33] was 82.4%. The viability, T/C [34] was 77.8%, the viability, T/C [35] was 62.4% and the viability, T/C [36] was 46.8%.
